Experimental findings from patent US9763961B2, “Compositions that modulate the activity of estrogen receptors and estrogen-related receptors and methods for use” (CITY OF HOPE, priority 2005, dated 2017) are described below.

SMILES strings stand for the structures.

Experiment [1] has as its system ERRα with coactivators GRIP-1 and PGC-1a. Description: Coactivator (GRIP-1, PGC-1a)-induced ERRα activity, Gal4-TK-Luc cotransfection in HeLa cells. It counts as cell-based. Particulars: GRIP-1 and PGC-1a cotransfection, FIG. 3. The source says:
To further confirm the antagonism of chalcones, the effect of Compound No. 1-9 on the interaction between ERRα and coactivators (GRIP-1 and PGC-1a) were investigated. HeLa cells were cotransfected with GAL4-binding site containing luciferase reporter and the expression plasmids for ERRα, GRIP-1 and PGC-1a. The ERRα activity was induced 5-fold and 13-fold by cotransfection with GRIP-1 and PGC-1 a, respectively.
Referring to FIG. 3, cotransfection experiments with GAL4-binding site containing luciferase reporter (Gal4-TK-Luc; 0.5 μg) and the expression plasmids for ERRα (pM-ERRα LBD; 0.5 μg), GRIP-1 (pSG5-GRIP-1; 0.5 μg) and PGC-1a(pSG5-PGC-1α; 0.25 μg) were performed in HeLa cells. Values represent the mean±SD.

Experiment [2] concerns promoter I.3 of human aromatase gene (through ERRα). Description: Aromatase promoter I.3 luciferase reporter with pSG5-ERRα in HepG2 cells. The experiment is classed as cell-based. The settings on record: 24 h, FIG. 5. On the procedure: Aromatase expression is regulated by several promoters, including ERRα modulating promoter I.3. In order to evaluate the effect of chalcones on aromatase activity through ERRα, transient transfection experiments using luciferase reporter plasmid containing a regulatory element S1 and promoter I.3 of human aromatase gene were performed in HepG2 cells. The transfected cells were incubated with chalcones, and luciferase activity was measured.
Referring to FIG. 5, HepG2 cells were cotransfected with pSG5-ERRα (2 μg) and luciferase reporter plasmid containing S1 and promoter I.3 of human aromatase gene (0.5 μg). The transfected cells were incubated with Compound No. 1-9 for 24 h. After cells were washed with 1× PBS, luciferase activity was measured. Values represent the mean±SD.

The target of experiment [3] is T1, human placental microsomal aromatase (Homo sapiens, UniProt P11511).
T1 construct: performed on a human placental microsomal aromatase preparation; from tissue; host or cells: human placenta, microsomes
T1 sequence (P11511 1-503): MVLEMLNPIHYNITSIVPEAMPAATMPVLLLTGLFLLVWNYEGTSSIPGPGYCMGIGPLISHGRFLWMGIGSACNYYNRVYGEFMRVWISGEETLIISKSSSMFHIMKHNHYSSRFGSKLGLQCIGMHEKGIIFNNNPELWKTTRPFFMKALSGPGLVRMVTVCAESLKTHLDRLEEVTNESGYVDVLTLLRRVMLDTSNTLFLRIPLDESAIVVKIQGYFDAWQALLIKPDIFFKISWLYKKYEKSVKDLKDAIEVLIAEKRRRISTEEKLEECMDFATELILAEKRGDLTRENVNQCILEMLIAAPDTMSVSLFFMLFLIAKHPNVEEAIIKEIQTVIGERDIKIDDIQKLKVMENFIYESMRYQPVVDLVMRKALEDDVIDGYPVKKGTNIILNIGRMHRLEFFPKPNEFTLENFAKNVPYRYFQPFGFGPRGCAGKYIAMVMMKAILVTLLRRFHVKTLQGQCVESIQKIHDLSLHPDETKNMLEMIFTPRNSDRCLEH
Put plainly: In vitro aromatase inhibition assay on human placental microsomal aromatase preparation. It counts as biochemical. Particulars: increasing concentrations (200 pM-200 mM), FIG. 6A. Here is the method: (§1) To evaluate the effect of chalcones on aromatase activity, we performed both in vitro assay and in-cell assay with chalcones. […] In addition, MCF-7 aro cells, which are stable aromatase-expressing breast cancer cell line, were incubated with chalcones.
(§2) Referring to FIG. 6, the effect of Compound No. 1-9 on aromatase activity was investigated by both in vitro inhibition assay (A) and in-cell aromatase assay (B; MCF-7 aro cells, C; HepG2 cells, D; SK-BR-3 cells). Referring to FIG. 6A, aromatase inhibition study with Compound No. 1-9 was performed on a human placental microsomal aromatase preparation using the assay procedures described in (9). Referring to FIG. 6B, MCF-7 aro cells, which are stable aromatase-expressing cell line generated in our laboratory (10), were incubated with 10 μM of Compound No. 1-9. After 24 h incubation, aromatase activity was measured by [3H] H20 release method. HepG2 cells, as shown in FIG. 6C and SK-BR-3 cells as shown in FIG. 6D were also incubated with Compound No. 1-9 for 24 h, and aromatase activities were measured. Values represent the mean±SD.

Experiment [4] has as its system aromatase in HepG2 cells. Put plainly: In-cell aromatase assay in HepG2 cells. The experiment is classed as cell-based. Particulars: 24 h, FIG. 6C. On the procedure: as §1, §2
In experiment [5] the test system is aromatase in SK-BR-3 cells. Description: In-cell aromatase assay in SK-BR-3 cells. It counts as cell-based. Particulars: 24 h, FIG. 6D. Here is the method:
as §1, §2

Experiment [6] concerns the target T2, ERRα (Homo sapiens, UniProt P11474).
T2 sequence (P11474 1-423): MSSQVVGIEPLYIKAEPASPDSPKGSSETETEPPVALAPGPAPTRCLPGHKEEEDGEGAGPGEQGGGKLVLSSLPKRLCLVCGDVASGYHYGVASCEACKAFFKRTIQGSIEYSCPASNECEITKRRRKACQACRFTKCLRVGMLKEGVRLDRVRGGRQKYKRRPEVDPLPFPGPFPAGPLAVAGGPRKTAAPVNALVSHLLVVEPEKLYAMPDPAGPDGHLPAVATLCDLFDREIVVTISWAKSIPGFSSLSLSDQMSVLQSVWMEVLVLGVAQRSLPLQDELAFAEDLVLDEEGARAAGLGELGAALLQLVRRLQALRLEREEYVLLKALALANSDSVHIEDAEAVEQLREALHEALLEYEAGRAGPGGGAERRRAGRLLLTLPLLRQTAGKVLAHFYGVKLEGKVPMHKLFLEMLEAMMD
Put plainly: Transient transfection assays, relative luciferase activity for ERRα (FIG. 7). It counts as cell-based. On the procedure:
HeLa cells were cultured in MEM Earle's salts medium supplemented with 5% charcoal/dextran-treated fetal bovine serum. Cells were then divided and cultured in 6-well plates until 80% confluence was achieved. The cells were next transfected with 4 μg Lipofectin. An equal amount of total DNA was used in all transfections by including appropriate amounts of the empty vector, pSG5, in addition to specific amounts of pSG5-ERRα and luciferase reporter plasmids (ERRE (ERRα recognizes an ERE half site)-containing reporter and aromatase promoter I.3-containing reporter). Following an overnight incubation, the medium containing Lipofectin and DNA was removed, and the cells cultured in a growth medium containing 5% charcoal/dextran-treated fetal bovine serum with or without ligands. After a 24-hour incubation, the cells was harvested from the plates by scraping, and the luciferase activities in the cell lysates (with the same amounts of protein) was measured according to the manufacturer's instructions (Promega). All experiments were performed in triplicate.
Referring to FIG. 2, we have also prepared GAL4-ERRα expression plasmid and luciferase reporter plasmids with GAL4 response element. This is a more sensitive assay method than that using pSG5-ERRα and ERE luciferase reporter plasmids.
The 2-methoxyl group may be important for the antagonistic activity of the chalcone. […]

`COc1cccc(/C=C/C(=O)c2ccc(O)cc2O)c1OC` [Compound No. 1-9, 2′,4′-Dihydroxy-2,3-dimethoxychalcone]: in experiment [1], the “Effect on coactivator-induced ERRα activity” value was “suppressed the coactivator-induced ERRα activity in a dose-dependent manner”. The “Effect on promoter I.3 activity” value in experiment [2] is recorded as “suppressed the promoter I.3 activity in a dose-dependent manner”. Besides, in experiment [3], the “Effect on aromatase activity, in vitro assay” value is on record as “did not inhibit aromatase activity”. Also, the “Effect on aromatase activity, HepG2 cells” value in experiment [4] is recorded as “inhibited aromatase activity in a dose-dependent manner”. Moreover, the “Effect on aromatase activity, SK-BR-3 cells” value in experiment [5] is on record as “inhibited aromatase activity in a dose-dependent manner”. Moreover, in experiment [6] (compared to DMSO control, FIG. 7), the “Effect on constitutive activity of ERRα (relative luciferase activity)” value was “can suppress the constitutive activity of ERRα”. In experiment [6] (read-out: IC50 values through transient transfection assays), the IC50 lay within 700 to 2000 nM.

In general, IC50 refers to the midpoint of a concentration-inhibition curve.
